PMC5404560, “Towards Selective Mycobacterial ClpP1P2 Inhibitors with Reduced Activity against the Human Proteasome” (Antimicrobial Agents and Chemotherapy, 2017)

How the values were obtained:
[1] = MTS cytotoxicity assay, HepG2; type: cell-based, human; conditions: human; MTS assay; read-out: GI50, HepG2 cells
Protocol: (§1) The MTS (Promega) reduction assay was used according to manufacturer's guidelines to assess Vero (ATCC […]) and HepG2 (ATCC HB-8065) cell viability. […] Carbonyl cyanide m-chlorophenylhydrazone (CCCP) was used as a cytotoxic positive control. Cytotoxicity was determined twice in independent experiments.

[2] = tested on: HepG2 cells; assay: MTS cytotoxicity assay, HepG2; type: cell-based, human; conditions: fold higher
Protocol: as §1

[3] = Human liver microsome stability; type: in vitro ADME; conditions: liver microsomes, read-out: HLM t1/2
Protocol: A parallel artificial-membrane permeability assay (PAMPA) and mouse liver microsome (MLM), human liver microsome (HLM), aqueous solubility, Log D, protein binding, and cytochrome P450 2D6 and 3A4 assays were carried out at Piramal Pharma Solutions.

For `O=C(N[C@@H](Cc1ccccn1)C(=O)N[C@@H](CCc1ccccc1)B(O)O)c1cnccn1` [Compound 58, ((R)-3-phenyl-1-((S)-2-(pyrazine-2-carboxamido)-3-(pyridin-2-yl)propanamido)propyl)boronic acid], the GI50 [1] was 500 µM, the “GI50 relative to M. tuberculosis growth-inhibitory potency, HepG2” value [2] was 200 fold and the half-life [3] was > 24 min.
